Measured values: ChEMBL document CHEMBL3860099, “Original Vinca Derivatives: From P-Glycoprotein Substrates to P-Glycoprotein Inhibitors” (J Med Chem, 2016)
Activity calls are given as the source filed them. No cut-off for these calls is given here.

What was measured:
[1] = Cytotoxicity against human K562 cells incubated for 72 hrs by CellTiter 96 aqueous one solution reagent based assay; type: functional, cell-based
[2] = Cytotoxicity against doxorubicin-resistant human K562R cells incubated for 72 hrs by CellTiter 96 aqueous one solution reagent based assay; type: functional, cell-based; conditions: k-562r
[3] = Resistance index, ratio of IC50 for cytotoxicity against doxorubicin-resistant human K562R cells to IC50 for cytotoxicity against human K562 cells; type: functional
K562R [4] = assay: Inhibition of P-gp in doxorubicin-resistant human K562R cells assessed as rhodamine influx by measuring mean fluorescence intensity at 10 uM incubated for 20 mins by flow cytometry; type: cell-based
K562R [5] = assay: Inhibition of P-gp in doxorubicin-resistant human K562R cells assessed as rhodamine influx by measuring ratio of rhodamine mean fluorescence intensity in presence and absence of compound at 10 uM incubated for 20 mins by flow cytometry; type: cell-based
K562R [6] = assay: Inhibition of P-gp in doxorubicin-resistant human K562R cells assessed as rhodamine influx by measuring ratio of rhodamine mean fluorescence intensity in presence and absence of compound at 5 uM incubated for 20 mins by flow cytometry; type: cell-based
[7] = Cytotoxicity against human MRC5 cells incubated for 72 hrs by CellTiter 96 aqueous one solution reagent based assay; type: toxicity, cell-based; conditions: mrc5, 72 h
K562R [8] = conditions: Homo sapiens
Description: Inhibition of P-gp in doxorubicin-resistant human K562R cells assessed as rhodamine efflux by measuring mean fluorescence intensity at 10 uM incubated for 1 hr by flow cytometry (Rvb = 0.47 No_unit)

[9] = Cytotoxicity against doxorubicin-resistant human K562R cells assessed as reduction in cell viability at 1 uM incubated for 72 hrs by CellTiter 96 aqueous one solution reagent based assay; type: functional, K562
[10] = Cytotoxicity against doxorubicin-resistant human K562R cells assessed as reduction in cell viability at 2 uM incubated for 72 hrs by CellTiter 96 aqueous one solution reagent based assay; type: functional, K562
K562R [11] = assay: Inhibition of P-gp-mediated multidrug resistance in doxorubicin-resistant human K562R cells assessed as potentiation of 50 nM vinorelbine-induced cytotoxicity at 2 uM incubated for 72 hrs by CellTiter 96 aqueous one solution reagent based assay; type: cell-based
K562R [12] = assay: Inhibition of P-gp-mediated multidrug resistance in doxorubicin-resistant human K562R cells assessed as potentiation of 5 nM vinorelbine-induced cytotoxicity by measuring cell viability at 1 uM incubated for 72 hrs by CellTiter 96 aqueous one solution reagent based assay
K562R [13] = assay: Inhibition of P-gp-mediated multidrug resistance in doxorubicin-resistant human K562R cells assessed as potentiation of 1 uM doxorubicin-induced cytotoxicity by measuring cell death level at 2 uM incubated for 72 hrs by CellTiter 96 aqueous one solution reagent based assay; design: scale not given: the % may be the effect or the level left
K562 = assay: Potentiation of 0.1 to 1 nM vinorelbine-induced cytotoxicity by measuring reduction in cell viability against human K562 cells at 2 uM incubated for 72 hrs by CellTiter 96 aqueous one solution reagent based assay; type: functional
Homo sapiens [14] = species on record: Homo sapiens; assay: Stimulation of recombinant human P-gp ATPase activity at 10 uM by Pgp-Glo assay
Homo sapiens [15] = species on record: Homo sapiens; assay: Inhibition of recombinant human P-gp ATPase activity at 40 uM by Pgp-Glo assay

With `CCC1=C[C@H]2CN(C1)C1=C(Cc3c([nH]c4ccccc34)[C@@](C(=O)OC)(c3cc4c(cc3OC)N(C)[C@H]3[C@@](O)(C(=O)OC)[C@H](OC(C)=O)[C@]5(CC)C=CCN6CC[C@]43[C@@H]65)C2)C(=O)N(CC(C)C)C1=O` the IC50 [1] was 0.45 µmol, the IC50 [2] was 2.5 µmol and the “Ratio IC50” value [3] was 5.5. The Flu intensity (K562R [4]) was 36, the Ratio (K562R [5]) was 20 and the inhibition (K562R [6]) was “Active”. For the same molecule, the Activity [7] was “Toxic” and the Flu intensity (K562R [8]) was 7.72.

In the case of `C#Cc1ccc2[nH]c3c(c2c1)C/C(C(=O)OC)=C\N1CC(CC)=C[C@@H](C1)C[C@]3(C(=O)OC)c1cc2c(cc1OC)N(C)[C@H]1[C@@](O)(C(=O)OC)[C@H](OC(C)=O)[C@]3(CC)C=CCN4CC[C@]21[C@@H]43`, the IC50 [1] is reported as 0.6 µmol, the IC50 [2] is reported as 3 µmol and the “Ratio IC50” value [3] is reported as 5. It also gave a Flu intensity (K562R [4]) of 1.6, a Ratio (K562R [5]) of 0.9 and a Flu intensity (K562R [8]) of 0.45.

In the case of `CCC1=C[C@H]2CN(C1)/C(C(=O)NC(C)C)=C(/C(=O)OC)Cc1c([nH]c3ccccc13)[C@@](C(=O)OC)(c1cc3c(cc1OC)N(C)[C@H]1[C@@](O)(C(=O)OC)[C@H](OC(C)=O)[C@]4(CC)C=CCN5CC[C@]31[C@@H]54)C2`, the IC50 [1] is reported as 0.04 µmol, the IC50 [2] is reported as 2 µmol and the “Ratio IC50” value [3] is reported as 50. It also gave a Flu intensity (K562R [4]) of 2.9, a Ratio (K562R [5]) of 1.6 and a Flu intensity (K562R [8]) of 1.39.

For `COc1cccc2c1C(=O)c1c(O)c3c(c(O)c1C2=O)C[C@@](O)(C(=O)CO)C[C@@H]3O[C@H]1C[C@H](N)[C@H](O)[C@H](C)O1` [DOXORUBICIN], the IC50 [1] was 0.047 µmol, the IC50 [2] was 35 µmol and the “Ratio IC50” value [3] was 745.

With `CC[C@]1(O)C[C@@H]2CN(CCc3c([nH]c4ccccc34)[C@@](C(=O)OC)(c3cc4c(cc3OC)N(C)[C@H]3[C@@](O)(C(=O)OC)[C@H](OC(C)=O)[C@]5(CC)C=CCN6CC[C@]43[C@@H]65)C2)C1` [VINBLASTINE] the IC50 [1] was 0.004 µmol, the IC50 [2] was 0.48 µmol and the “Ratio IC50” value [3] was 120. The Flu intensity (K562R [4]) was 1.2, the Ratio (K562R [5]) was 0.7 and the Activity [7] was “Toxic”. The Flu intensity (K562R [8]) was 0.42.

For `CCC1=C[C@H]2CN(C1)C[C@H](C(=O)OCc1ccccc1)Cc1c([nH]c3ccccc13)[C@@](C(=O)OC)(c1cc3c(cc1OC)N(C)[C@H]1[C@@](O)(C(=O)OC)[C@H](OC(C)=O)[C@]4(CC)C=CCN5CC[C@]31[C@@H]54)C2`, the IC50 [1] was 0.4 µmol, the IC50 [2] was over 10 µmol and the “Ratio IC50” value [3] was over 25. It also gave a Flu intensity (K562R [4]) of 2.2, a Ratio (K562R [5]) of 1.2 and a Flu intensity (K562R [8]) of 0.48.

With `CCC1=C[C@H]2CN(C1)/C(C(=O)NCc1ccccc1)=C(/C(=O)OC)Cc1c([nH]c3ccccc13)[C@@](C(=O)OC)(c1cc3c(cc1OC)N(C)[C@H]1[C@@](O)(C(=O)OC)[C@H](OC(C)=O)[C@]4(CC)C=CCN5CC[C@]31[C@@H]54)C2` the IC50 [1] was 0.04 µmol, the IC50 [2] was 6 µmol and the “Ratio IC50” value [3] was 150. For the same molecule, the Flu intensity (K562R [4]) was 2.2, the Ratio (K562R [5]) was 1.2 and the Flu intensity (K562R [8]) was 0.55.

In the case of `C#Cc1ccc2[nH]c3c(c2c1)C/C(C(=O)OC)=C(/C(=O)NC(C)C)N1CC(CC)=C[C@@H](C1)C[C@]3(C(=O)OC)c1cc2c(cc1OC)N(C)[C@H]1[C@@](O)(C(=O)OC)[C@H](OC(C)=O)[C@]3(CC)C=CCN4CC[C@]21[C@@H]43`, the IC50 [1] is reported as 0.6 µmol, the IC50 [2] is reported as 2.5 µmol and the “Ratio IC50” value [3] is reported as 4. The Flu intensity (K562R [4]) was 1.8, the Ratio (K562R [5]) was 1 and the Flu intensity (K562R [8]) was 0.51.

In the case of `CCC1=C[C@H]2CN(C1)C1=C(Cc3c([nH]c4ccccc34)[C@@](C(=O)OC)(c3cc4c(cc3OC)N(C)[C@H]3[C@@](O)(C(=O)OC)[C@H](OC(C)=O)[C@]5(CC)C=CCN6CC[C@]43[C@@H]65)C2)C(=O)N(Cc2ccccc2)C1=O`, the IC50 [1] is reported as 0.9 µmol, the IC50 [2] is reported as 5 µmol and the “Ratio IC50” value [3] is reported as 5.5. For the same molecule, the Flu intensity (K562R [4]) was 11.3, the Ratio (K562R [5]) was 6.3 and the inhibition (K562R [6]) was “Active”. The Activity [9] was 20%, the Activity [10] was 20% and the inhibition (K562R [11]) was “Active”. It also gave an Activity (K562R [12]) of 40%, an Activity (K562R [13]) of 90% and an Activity (K562) of 20%. The Activity [7] was “Toxic”, the Activity (Homo sapiens [14]) was “Active” and the inhibition (Homo sapiens [15]) was “Active”. For the same molecule, the Flu intensity (K562R [8]) was 1.89.

For `CCOC(=O)[C@@H]1Cc2c([nH]c3ccccc23)[C@@](C(=O)OC)(c2cc3c(cc2OC)N(C)[C@H]2[C@@](O)(C(=O)OC)[C@H](OC(C)=O)[C@]4(CC)C=CCN5CC[C@]32[C@@H]54)C[C@H]2C=C(CC)CN(C2)C1`, the IC50 [1] was 0.08 µmol, the IC50 [2] was 3 µmol and the “Ratio IC50” value [3] was 37. For the same molecule, the Flu intensity (K562R [4]) was 5.3, the Ratio (K562R [5]) was 2.9 and the Flu intensity (K562R [8]) was 0.77.

In the case of `CCC1=C[C@H]2CN(C1)C1=C(Cc3c([nH]c4ccccc34)[C@@](C(=O)OC)(c3cc4c(cc3OC)N(C)[C@H]3[C@@](O)(C(=O)OC)[C@H](OC(C)=O)[C@]5(CC)C=CCN6CC[C@]43[C@@H]65)C2)C(=O)N(C(C)C)C1=O`, the IC50 [1] is reported as 2.6 µmol, the IC50 [2] is reported as 6 µmol and the “Ratio IC50” value [3] is reported as 2.3. For the same molecule, the Flu intensity (K562R [4]) was 7.6, the Ratio (K562R [5]) was 4.2 and the inhibition (K562R [6]) was “Active”. For the same molecule, the Activity [7] was “Toxic” and the Flu intensity (K562R [8]) was 2.9.

In the case of `CCOC(=O)/C1=C/N2CC(CC)=C[C@@H](C2)C[C@](C(=O)OC)(c2cc3c(cc2OC)N(C)[C@H]2[C@@](O)(C(=O)OC)[C@H](OC(C)=O)[C@]4(CC)C=CCN5CC[C@]32[C@@H]54)c2[nH]c3ccccc3c2C1`, the IC50 [1] is reported as 0.1 µmol, the IC50 [2] is reported as over 10 µmol and the “Ratio IC50” value [3] is reported as over 100. It also gave a Flu intensity (K562R [4]) of 7.2, a Ratio (K562R [5]) of 4 and a Flu intensity (K562R [8]) of 0.64.

With `CCC1=C[C@H]2CN(/C=C(/C(=O)OCc3ccccc3)Cc3c([nH]c4ccccc34)[C@@](C(=O)OC)(c3cc4c(cc3OC)N(C)[C@H]3[C@@](O)(C(=O)OC)[C@H](OC(C)=O)[C@]5(CC)C=CCN6CC[C@]43[C@@H]65)C2)C1` the IC50 [1] was 0.1 µmol, the IC50 [2] was over 10 µmol and the “Ratio IC50” value [3] was over 100. For the same molecule, the Flu intensity (K562R [4]) was 2.3, the Ratio (K562R [5]) was 1.3 and the Flu intensity (K562R [8]) was 0.48.

For `CCC1=C[C@H]2CN(/C=C(/C(=O)OC)Cc3c([nH]c4ccc(Br)cc34)[C@@](C(=O)OC)(c3cc4c(cc3OC)N(C)[C@H]3[C@@](O)(C(=O)OC)[C@H](OC(C)=O)[C@]5(CC)C=CCN6CC[C@]43[C@@H]65)C2)C1`, the IC50 [1] was 0.5 µmol, the IC50 [2] was 3 µmol and the “Ratio IC50” value [3] was 6. It also gave a Flu intensity (K562R [4]) of 2.1, a Ratio (K562R [5]) of 1.2 and a Flu intensity (K562R [8]) of 0.47.

With `CCC1=C[C@@H]2CN(C1)Cc1c([nH]c3ccccc13)[C@@](C(=O)OC)(c1cc3c(cc1OC)N(C)[C@H]1[C@@](O)(C(=O)OC)[C@H](OC(C)=O)[C@]4(CC)C=CCN5CC[C@]31[C@@H]54)C2` [VINORELBINE] the IC50 [1] was 0.003 µmol, the IC50 [2] was 0.41 µmol and the “Ratio IC50” value [3] was 137. For the same molecule, the Flu intensity (K562R [4]) was 1.6, the Ratio (K562R [5]) was 0.9 and the Activity [7] was “Toxic”. For the same molecule, the Flu intensity (K562R [8]) was 0.42.
